For the test, the target named is T1, IDH1 (Homo sapiens, UniProt O75874).
T1 construct: residues 1–414
In words: biolayer interferometry on recombinant IDH1 (repeat Kd […]); supported by DSF, CETSA, LC-MS/MS adduct at Cys297, enzyme activation EC50 […]. Type of test: binding. For orientation: Biolayer interferometry detects binding as a change in optical thickness at a sensor tip.

T1 sequence (O75874 whole entry, the tested form may be a part): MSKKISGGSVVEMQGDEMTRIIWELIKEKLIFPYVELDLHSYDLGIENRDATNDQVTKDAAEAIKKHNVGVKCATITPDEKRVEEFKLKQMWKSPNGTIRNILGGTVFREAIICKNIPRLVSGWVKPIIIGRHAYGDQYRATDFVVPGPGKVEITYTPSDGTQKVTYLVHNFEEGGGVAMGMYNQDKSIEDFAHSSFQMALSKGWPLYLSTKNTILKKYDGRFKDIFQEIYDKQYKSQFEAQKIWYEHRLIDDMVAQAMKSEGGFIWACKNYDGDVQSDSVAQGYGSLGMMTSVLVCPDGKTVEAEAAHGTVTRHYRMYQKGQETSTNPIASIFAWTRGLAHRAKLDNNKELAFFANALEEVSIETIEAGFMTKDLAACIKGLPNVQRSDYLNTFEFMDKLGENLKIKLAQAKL

The term Kd denotes a measure of binding affinity in units of concentration. Take `O=C(O)[C@H]1O[C@@H](Oc2cc3oc(-c4ccc(O)cc4)cc(=O)c3c(O)c2O)[C@H](O)[C@@H](O)[C@@H]1O` [Scu, scutellarin]: the Kd is 11.5 µM.
